Measured values published in ChEMBL document CHEMBL3112536, “Pd-N-heterocyclic carbene catalyzed synthesis of piperidine alkene-alkaloids and their anti-cancer evaluation” (Bioorg Med Chem Lett, 2014).
In brackets after ≈: the same amount, converted by molar mass.

Tests used:
Type in all cases: functional, cell-based
OVCAR-3 = experiment: Cytotoxicity against human OVCAR3 cells assessed as growth inhibition after 24 hrs by MTT assay; conditions: OVCAR-3, 24 h
A549 = experiment: Cytotoxicity against human A549 cells assessed as growth inhibition after 24 hrs by MTT assay; conditions: A549, 24 h
MCF7 = experiment: Cytotoxicity against human MCF7 cells assessed as growth inhibition after 24 hrs by MTT assay; conditions: MCF7, 24 h

Row | SMILES | IC50 (OVCAR-3) [µg/mL] | IC50 (A549) [µg/mL] | IC50 (MCF7) [µg/mL]
1 | CN1CCCC[C@H]1/C=C/c1ccc(O)cc1 | 1.94 (≈ 8.93 µM) | 3.45 (≈ 15.9 µM) | 1.51 (≈ 6.95 µM)
2 | C(=C\[C@@H]1CCCCN1)/c1ccccc1 | 10.5 (≈ 55.9 µM) | 9.99 (≈ 53.3 µM) | 9.15 (≈ 48.9 µM)
3 | Cc1ccc(/C=C/[C@@H]2CCCCN2)cc1 | 8.48 (≈ 42.1 µM) | 8.56 (≈ 42.5 µM) | 5.35 (≈ 26.6 µM)
4 | COc1ccc(/C=C/[C@@H]2CCCCN2)cc1 | 3.31 (≈ 15.2 µM) | 4.33 (≈ 19.9 µM) | 3.57 (≈ 16.4 µM)
5 | COc1ccccc1/C=C/[C@@H]1CCCCN1 | 4.78 (≈ 22 µM) | 4.94 (≈ 22.7 µM) | 3.81 (≈ 17.5 µM)
6 | Cc1cccc(C)c1/C=C/[C@@H]1CCCCN1 | 6.27 (≈ 29.1 µM) | 7.28 (≈ 33.8 µM) | 4.29 (≈ 19.9 µM)
7 | CCc1ccc(/C=C/[C@@H]2CCCCN2)cc1 | 5.07 (≈ 23.5 µM) | 5.94 (≈ 27.6 µM) | 4.13 (≈ 19.2 µM)
8 | O=[N+]([O-])c1ccc(/C=C/[C@@H]2CCCCN2)cc1 | 1.02 (≈ 4.39 µM) | 3.27 (≈ 14.1 µM) | 2.15 (≈ 9.26 µM)
9 | CC(=O)c1ccc(/C=C/[C@@H]2CCCCN2)cc1 | 2.18 (≈ 9.51 µM) | 3.69 (≈ 16.1 µM) | 2.7 (≈ 11.8 µM)
10 | FC(F)(F)c1ccc(/C=C/[C@@H]2CCCCN2)cc1 | 0.99 (≈ 3.88 µM) | 2.82 (≈ 11 µM) | 1.25 (≈ 4.9 µM)
